Drawing on PubChem BioAssay (NCI), this text covers GI50 and TGI for 7 compounds.

Test systems include UACC-257 melanoma; NCI-H460 lung; HL-60(TB) leukemia; BT-549 breast; NCI/ADR-RES ovarian; HS 578T breast; MDA-MB-435; CCRF-CEM leukemia; NCI-H23 lung; SR leukemia.
What all share (test): NCI anticancer screen, dose series, 48 h

Molecules are shown by their SMILES.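 Five compound concentrations were applied to cells in 96-well plates for 48 hours; endpoints were derived by simple linear interpolation of the resulting dose-response curve. GI50 is the concentration that inhibits growth by half. TGI: concentration producing complete growth inhibition.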

For the compound `CC/C=C\C[C@H]1C/C=C2/C(=O)C=C[C@H]2C/C=C\CCCC(=O)O1`, the GI50 in the experiment on UACC-257 melanoma was 5.04 µM; in the experiment on NCI-H460 lung, 2.92 µM; with HL-60(TB) leukemia it was 1.74 µM; in the experiment on BT-549 breast, 2.52 µM; with NCI/ADR-RES ovarian, 1.47 µM; in the experiment on HS 578T breast, 10.3 µM. Besides, the GI50 in the experiment on MDA-MB-435 was 1.66 µM; in the experiment with CCRF-CEM leukemia, 1.67 µM; in the experiment with NCI-H23 lung, 2.15 µM; with SR leukemia, 1.34 µM. The TGI in the experiment on UACC-257 melanoma is 12 µM; in the experiment on NCI-H460 lung it was 14.5 µM; in the experiment with HL-60(TB) leukemia it was 12 µM; in the experiment with BT-549 breast, 9.29 µM; in the experiment on NCI/ADR-RES ovarian it was over 50 µM; with HS 578T breast it was over 50 µM. The TGI in the experiment on MDA-MB-435 was 6.04 µM; with CCRF-CEM leukemia it was 15.3 µM; in the experiment on NCI-H23 lung it was 9.92 µM; with SR leukemia, 21.8 µM.
For the compound `Cc1cc(F)c(C(=O)Nc2cccc(-c3nncn3C(C)C)n2)cc1-n1cnc(C2CC2)c1`, the GI50 with UACC-257 melanoma was 32.8 µM; with NCI-H460 lung, 14.5 µM; in the experiment on HL-60(TB) leukemia, 16.2 µM; in the experiment with BT-549 breast it was 11.7 µM; with NCI/ADR-RES ovarian, 17.7 µM; with HS 578T breast, 26.6 µM. Besides, the GI50 with MDA-MB-435 is 11.4 µM; in the experiment with CCRF-CEM leukemia, 21 µM; in the experiment with NCI-H23 lung, 12 µM; in the experiment with SR leukemia, 4.42 µM. The TGI was 85.7 µM in the experiment with UACC-257 melanoma; 96.4 µM in the experiment on NCI-H460 lung; 45.3 µM in the experiment with HL-60(TB) leukemia; 54.8 µM in the experiment with BT-549 breast; 93.2 µM in the experiment with NCI/ADR-RES ovarian; over 100 µM with HS 578T breast. Moreover, the TGI in the experiment on MDA-MB-435 is over 100 µM; in the experiment on CCRF-CEM leukemia it was over 100 µM; in the experiment with NCI-H23 lung it was 46.6 µM; with SR leukemia, over 100 µM.
With `COc1ccc(-c2nn(-c3cccc(Cl)c3)cc2/C=C2\NC(=S)N(c3ccc(Cl)cc3)C2=O)cc1`, the GI50 in the experiment with UACC-257 melanoma is 3.95 µM; in the experiment with NCI-H460 lung it was 4.7 µM; in the experiment on HL-60(TB) leukemia, 8.61 µM; in the experiment on BT-549 breast, 4.46 µM; in the experiment with NCI/ADR-RES ovarian, 5.51 µM; in the experiment with HS 578T breast, 4.14 µM. In addition, the GI50 is 7.38 µM in the experiment with MDA-MB-435, 2.98 µM in the experiment on CCRF-CEM leukemia, 3.78 µM in the experiment on NCI-H23 lung and 3.59 µM in the experiment on SR leukemia. Besides, the TGI in the experiment with UACC-257 melanoma was 8.55 µM; with NCI-H460 lung, 18.4 µM; with HL-60(TB) leukemia it was over 25 µM; with BT-549 breast it was 11.6 µM; in the experiment with NCI/ADR-RES ovarian, 14.5 µM; in the experiment with HS 578T breast, 24.1 µM. For the same compound, the TGI with MDA-MB-435 was over 25 µM; in the experiment on CCRF-CEM leukemia, 11 µM; in the experiment with NCI-H23 lung, 9.23 µM; in the experiment on SR leukemia, 7.29 µM.
Consider `COc1ccc(-n2cc(-c3cc(OC)c(OC)c(OC)c3)nc2SCc2ccc(Cl)cc2)cc1OC`, for which the GI50 was over 100 µM in the experiment with UACC-257 melanoma; over 100 µM with NCI-H460 lung; 78 µM in the experiment on HL-60(TB) leukemia; over 100 µM in the experiment with BT-549 breast; 81.6 µM in the experiment on NCI/ADR-RES ovarian; 66.5 µM in the experiment with HS 578T breast. Moreover, the GI50 in the experiment with MDA-MB-435, in the experiment on CCRF-CEM leukemia, with NCI-H23 lung and with SR leukemia was over 100 µM in each case. Also, the TGI in the experiment on UACC-257 melanoma, in the experiment with NCI-H460 lung, in the experiment on HL-60(TB) leukemia, with BT-549 breast, in the experiment with NCI/ADR-RES ovarian and in the experiment with HS 578T breast was over 100 µM in each case. Further, the TGI with MDA-MB-435, with CCRF-CEM leukemia, in the experiment on NCI-H23 lung and with SR leukemia was over 100 µM in each case.
Regarding `Cc1cccc2c(C3=C(c4cn(C)c5ccccc45)C(=O)NC3=O)cn(C)c12`, the GI50 is 24.8 µM in the experiment with UACC-257 melanoma; over 21.8 µM in the experiment with NCI-H460 lung; over 25 µM in the experiment with HL-60(TB) leukemia; 12.7 µM in the experiment with BT-549 breast; over 19.6 µM with NCI/ADR-RES ovarian; 2.83 µM in the experiment with HS 578T breast. Moreover, the GI50 in the experiment on MDA-MB-435 was 1.24 µM; in the experiment with CCRF-CEM leukemia, over 18 µM; with NCI-H23 lung it was over 25 µM; in the experiment with SR leukemia it was 4.88 µM. For the same compound, the TGI in the experiment on UACC-257 melanoma is over 25 µM; in the experiment on NCI-H460 lung, over 25 µM; in the experiment on HL-60(TB) leukemia, over 25 µM; in the experiment with BT-549 breast, over 25 µM; in the experiment on NCI/ADR-RES ovarian, over 25 µM; with HS 578T breast it was 17.3 µM. In addition, the TGI in the experiment on MDA-MB-435, in the experiment on CCRF-CEM leukemia, in the experiment on NCI-H23 lung and in the experiment with SR leukemia was over 25 µM in each case.
As to `OCC#CCOCC#Cc1ccccc1C#CCOCC#CCO`, the GI50 was 35.5 µM with UACC-257 melanoma; 48.6 µM in the experiment on NCI-H460 lung; 47.4 µM with HL-60(TB) leukemia; 34.2 µM with BT-549 breast; 46.6 µM in the experiment on NCI/ADR-RES ovarian; over 100 µM with HS 578T breast. Also, the GI50 was 53.3 µM in the experiment with MDA-MB-435, 18.5 µM in the experiment with CCRF-CEM leukemia, 36 µM with NCI-H23 lung and 18.5 µM with SR leukemia. Moreover, the TGI was over 100 µM with UACC-257 melanoma; over 100 µM in the experiment on NCI-H460 lung; over 100 µM with HL-60(TB) leukemia; 93.2 µM in the experiment with BT-549 breast; over 100 µM in the experiment on NCI/ADR-RES ovarian; over 100 µM in the experiment on HS 578T breast. In addition, the TGI is over 100 µM in the experiment with MDA-MB-435, 57.1 µM with CCRF-CEM leukemia, over 100 µM in the experiment on NCI-H23 lung and over 100 µM in the experiment with SR leukemia.
On to `C=CC(=O)N[C@@H]1CN(c2nc(Nc3cn(C)nc3OC)c3ncn(C)c3n2)C[C@H]1F`, for which the GI50 is 35.8 µM in the experiment with UACC-257 melanoma; 34.5 µM with NCI-H460 lung; 27.8 µM in the experiment on HL-60(TB) leukemia; 28.6 µM with BT-549 breast; over 100 µM in the experiment on NCI/ADR-RES ovarian; 34 µM in the experiment with HS 578T breast. In addition, the GI50 was 15.8 µM in the experiment on MDA-MB-435, 39.4 µM in the experiment on CCRF-CEM leukemia, 27.5 µM with NCI-H23 lung and 7.57 µM in the experiment on SR leukemia. The TGI in the experiment on UACC-257 melanoma was over 100 µM; with NCI-H460 lung, over 100 µM; in the experiment on HL-60(TB) leukemia it was 78.5 µM; with BT-549 breast it was over 100 µM; in the experiment on NCI/ADR-RES ovarian, over 100 µM; with HS 578T breast, over 100 µM. Besides, the TGI is 38.5 µM with MDA-MB-435, over 100 µM with CCRF-CEM leukemia, over 100 µM in the experiment with NCI-H23 lung and over 91.3 µM in the experiment on SR leukemia.
